In patent publication US8933070B2, “Methods of targeting PTEN mutant diseases and compositions therefor” (University Health Network, priority 2010, dated 2015):

Experiments:
[1] = tested on: MDA-MB-231 breast cancer cell line; assay: Cell growth inhibition, SRB assay, extended panel; format: cell-based; settings: Homo sapiens, MDA-MB-231, read-out: GI50 Range MDA-MB-231
Procedure: Breast cancer and normal cells were seeded at various concentrations, ranging from 1500 to 4000 per 80 μl according to cell growth rate, into 96-well plates 24 hours before compound overlay. Each 10 mM stock solution in 100% DMSO of the compounds was diluted with Opti-MEM I Reduced-Serum Medium (Invitrogen, Canada) to make concentration ranges from 50 nM to 250 μM. 20 μl from each concentration was added to the cells to make the final concentration range from 10 nM to 50 μM. The cells were cultured at 37° C. for 5 days before the Sulforhodamine B (SRB) assay was performed to assess cell survival. SRB is a water-soluble dye that binds to the basic amino acids of cellular proteins. Thus, colorimetric measurement of the bound dye provides an estimate of the total protein mass and is related to cell number. The cells were fixed in situ by gently aspirating off the culture media and adding 50 μl ice-cold 10% Tri-chloroacetic Acid (TCA) per well and incubation at 4° C. for 30-60 min. The plates were washed with tap water five times and allowed to air dry for 5 min. […] Absorbances were read at 570 nm. The cell survival percentage at each compound concentration was calculated over the cell DMSO control, which was growing in the presence of 0.1% DMSO (0.5% in the case of 50 μM compounds). Cell viability GI50 values were calculated using GraphPad PRISM software (GraphPad Software, Inc.).

AMPKalpha = assay: Kinase selectivity assay (CEREP, HTRF); format: biochemical, human
Procedure: The inhibitory activity of selected compounds was evaluated against a panel of 45 different kinase enzymes by CEREP, France. The assays were performed using standard HTRF assay methods as documented by CEREP against the human orthologues of Abl kinase, Akt1/PKBa, AMPKa, BMX kinase (Etk), Brk, CaMK2a, CaMK4, CDC2/CDK1 (cycB), CHK1, CHK2, c-Met kinase, CSK, EphB4 kinase, ERK1, ERK2 (P42mapk), FGFR2 kinase, FGFR4 kinase, FLT-1 kinase (VEGFR1), FLT-3 kinase, Fyn kinase, IGF1R kinase, IRK (InsR), JNK 2, KDR kinase (VEGFR2), Lck kinase, Lyn kinase, MAPKAPK2, MEK1/MAP2K1, p38a kinase, p38d kinase, p38g kinase, PDGFRb kinase, PDK1, PKA, PKCa, PKCb1, PKCb2, PKCg, Ret kinase, ROCK2, RSK2, Src kinase, Syk, and TRKA. The % Inhibition was determined by the formula; % Inhibition=100×(1−(experimental value−background value)/(high activity control−background value)).

SMILES: COc1ccc2c(c1)/C(=C\c1ccc3c(/C=C/c4ccc(N5CCN(C)CC5)nc4)n[nH]c3c1)C(=O)N2 [Compound 3]
- GI50 [1]: < 5 µM

SMILES: CN(C)Cc1ccc(/C=C/c2n[nH]c3cc([C@H]4C[C@@]45C(=O)Nc4ccccc45)ccc23)cc1 (racemic) [Compound 35]
- % Inhibition at 10 μM Concentration (AMPKalpha): 69%
